Assay results from patent US7402548B2, “Benzoxazole compounds, process for producing the same and herbicides” (Kyoyu Agri Co., Ltd., priority 2000, dated 2008).

Key:
barnyard grass [1] = test: Herbicidal test for paddy field; format: in vivo, Eschinochloa crusgalli; conditions: 500 g/ha, dropwise addition to paddy water at 1.5 leaf stage of barnyard grass; glass house 25° C., 3 weeks; rank 0-5 vs non-treated district
Description: (§1) Wagner pots, each having an area of 1/5000 are, were packed with Ube soil (alluvial soil) and planted with seeds or tubers of young rice plant, barnyard grass, bulrush, Cyperus serotinus Rottb., arrowhead and monochoria. Then, the pots were filled with water to a depth of 3 cm.
(§2) Each wettable powder of the desired Compounds (I) shown in Tables 1 to 21, 24, 25, 28 and 29 prepared in accordance with Example 2 was diluted with water containing a surfactant (0.05%) and subjected to dropwise addition treatment by using pipet so that an effective concentration of the compound (I) in each herbicide became 500 g/ha at 1.5 leaf stage of barnyard grass.
(§3) These plants were controlled in a glass house at an average temperature of 25° C. for 3 weeks, and then herbicidal effects thereof were investigated.
(§4) The herbicidal effects are evaluated according to the following 6 ranks as compared with non-treated district. (0: normal development, 1: Less damaged, 2: Slightly damaged, 3: Moderately damaged, 4: Severely damaged, 5: All killed). Incidentally, “-” in the column means not investigated.

bulrush = test: Herbicidal test for paddy field; format: in vivo, Scrips juncoides; conditions: 500 g/ha, dropwise addition to paddy water at 1.5 leaf stage of barnyard grass; glass house 25° C., 3 weeks; rank 0-5 vs non-treated district
Description: as §1, §2, §3, §4

Cyperus serotinus Rottb. = test: Herbicidal test for paddy field; format: in vivo; conditions: 500 g/ha, dropwise addition to paddy water at 1.5 leaf stage of barnyard grass; glass house 25° C., 3 weeks; rank 0-5 vs non-treated district
Description: as §1, §2, §3, §4

corn [2] = test: Soil treatment test for upland field; format: in vivo; parameters: key: 0 = normal development, 5 = all killed; conditions: 500 g/ha, 3 weeks, glass house 25° C.
Procedure, shortened: (§5)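 Using a pre-emergence soil application at 500 g/ha, treated pots were held 3 weeks in a glass house averaging 25° C. Injury was graded on a 0–5 scale against non-treated pots; "-" marks entries not investigated.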

solgum [3] = test: Soil treatment test for upland field; format: in vivo; parameters: key: 0 = normal development, 5 = all killed; conditions: 500 g/ha, 3 weeks, glass house 25° C.
Procedure, shortened: as §5

wheat [4] = test: Soil treatment test for upland field; format: in vivo; parameters: key: 0 = normal development, 5 = all killed; conditions: 500 g/ha, 3 weeks, glass house 25° C.
Procedure, shortened: as §5

Large crabgrass [5] = test: Soil treatment test for upland field; format: in vivo, Digitaria adscendens; parameters: key: 0 = normal development, 5 = all killed; conditions: 500 g/ha, 3 weeks, glass house 25° C.
Procedure, shortened: as §5

barnyard grass [6] = test: Soil treatment test for upland field; format: in vivo, Eschinochloa crusgalli; parameters: key: 0 = normal development, 5 = all killed; conditions: 500 g/ha, 3 weeks, glass house 25° C.
Procedure, shortened: as §5

green foxtail [7] = test: Soil treatment test for upland field; format: in vivo, Setaria viridis; parameters: key: 0 = normal development, 5 = all killed; conditions: 500 g/ha, 3 weeks, glass house 25° C.
Procedure, shortened: as §5

blackgrass [8] = test: Soil treatment test for upland field; format: in vivo, Alopecurus aegualis; parameters: key: 0 = normal development, 5 = all killed; conditions: 500 g/ha, 3 weeks, glass house 25° C.
Procedure, shortened: as §5

annual bluegrass [9] = test: Soil treatment test for upland field; format: in vivo, Poa annua; parameters: key: 0 = normal development, 5 = all killed; conditions: 500 g/ha, 3 weeks, glass house 25° C.
Procedure, shortened: as §5

common lambsquarters [10] = test: Soil treatment test for upland field; format: in vivo, Chenopodium album; parameters: key: 0 = normal development, 5 = all killed; conditions: 500 g/ha, 3 weeks, glass house 25° C.
Procedure, shortened: as §5

livid amaranth [11] = test: Soil treatment test for upland field; format: in vivo, Amaranthus lividus; parameters: key: 0 = normal development, 5 = all killed; conditions: 500 g/ha, 3 weeks, glass house 25° C.
Procedure, shortened: as §5

morning glory [12] = test: Soil treatment test for upland field; format: in vivo, Ipomoea spps.; parameters: key: 0 = normal development, 5 = all killed; conditions: 500 g/ha, 3 weeks, glass house 25° C.
Procedure, shortened: as §5

corn [13] = test: Foliar spread test for upland field; format: in vivo; parameters: key: 0 = normal development, 5 = all killed (6 ranks vs. untreated); conditions: foliar spray, 500 ppm, 3 weeks, glass house 25° C.
Procedure, shortened: (§6)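 Seeds were sown in volcanic ash soil in Wagner pots and grown about 2 weeks in a glass house at an average 25° C. Wettable-powder formulations diluted to 500 ppm in water with 0.5% surfactant were sprayed uniformly over the plants. After 3 further weeks at 25° C, damage was scored 0 (normal) to 5 (all killed) against untreated plants.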

cotton = test: Foliar spread test for upland field; format: in vivo; parameters: key: 0 = normal development, 5 = all killed (6 ranks vs. untreated); conditions: foliar spray, 500 ppm, 3 weeks, glass house 25° C.
Procedure, shortened: as §6

solgum [14] = test: Foliar spread test for upland field; format: in vivo; parameters: key: 0 = normal development, 5 = all killed (6 ranks vs. untreated); conditions: foliar spray, 500 ppm, 3 weeks, glass house 25° C.
Procedure, shortened: as §6

soybean [15] = test: Foliar spread test for upland field; format: in vivo; parameters: key: 0 = normal development, 5 = all killed (6 ranks vs. untreated); conditions: foliar spray, 500 ppm, 3 weeks, glass house 25° C.
Procedure, shortened: as §6

sugar beat [16] = test: Foliar spread test for upland field; format: in vivo; parameters: key: 0 = normal development, 5 = all killed (6 ranks vs. untreated); conditions: foliar spray, 500 ppm, 3 weeks, glass house 25° C.
Procedure, shortened: as §6

wheat [17] = test: Foliar spread test for upland field; format: in vivo; parameters: key: 0 = normal development, 5 = all killed (6 ranks vs. untreated); conditions: foliar spray, 500 ppm, 3 weeks, glass house 25° C.
Procedure, shortened: as §6

Large crabgrass [18] = test: Foliar spread test for upland field; format: in vivo, Digitaria adscendens; parameters: key: 0 = normal development, 5 = all killed (6 ranks vs. untreated); conditions: foliar spray, 500 ppm, 3 weeks, glass house 25° C.
Procedure, shortened: as §6

barnyardgrjass = test: Foliar spread test for upland field; format: in vivo, Eschinochloa crusgalli; parameters: key: 0 = normal development, 5 = all killed (6 ranks vs. untreated); conditions: foliar spray, 500 ppm, 3 weeks, glass house 25° C.
Procedure, shortened: as §6

green foxtail [19] = test: Foliar spread test for upland field; format: in vivo, Setaria viridis; parameters: key: 0 = normal development, 5 = all killed (6 ranks vs. untreated); conditions: foliar spray, 500 ppm, 3 weeks, glass house 25° C.
Procedure, shortened: as §6

blackgrass [20] = test: Foliar spread test for upland field; format: in vivo, Alopecurus aegualis; parameters: key: 0 = normal development, 5 = all killed (6 ranks vs. untreated); conditions: foliar spray, 500 ppm, 3 weeks, glass house 25° C.
Procedure, shortened: as §6

annual bluegrass [21] = test: Foliar spread test for upland field; format: in vivo, Poa annua; parameters: key: 0 = normal development, 5 = all killed (6 ranks vs. untreated); conditions: foliar spray, 500 ppm, 3 weeks, glass house 25° C.
Procedure, shortened: as §6

common lambsquarters [22] = test: Foliar spread test for upland field; format: in vivo, Chenopodium album; parameters: key: 0 = normal development, 5 = all killed (6 ranks vs. untreated); conditions: foliar spray, 500 ppm, 3 weeks, glass house 25° C.
Procedure, shortened: as §6

livid amaranth [23] = test: Foliar spread test for upland field; format: in vivo, Amaranthus lividus; parameters: key: 0 = normal development, 5 = all killed (6 ranks vs. untreated); conditions: foliar spray, 500 ppm, 3 weeks, glass house 25° C.
Procedure, shortened: as §6

velvetleaf [24] = test: Foliar spread test for upland field; format: in vivo, Abutilon theophrasti; parameters: key: 0 = normal development, 5 = all killed (6 ranks vs. untreated); conditions: foliar spray, 500 ppm, 3 weeks, glass house 25° C.
Procedure, shortened: as §6

morning glory [25] = test: Foliar spread test for upland field; format: in vivo, Ipomoea spps.; parameters: key: 0 = normal development, 5 = all killed (6 ranks vs. untreated); conditions: foliar spray, 500 ppm, 3 weeks, glass house 25° C.
Procedure, shortened: as §6

soybean [26] = test: Soil treatment test for upland field; format: in vivo; parameters: key: 0 = normal development, 5 = all killed; conditions: 500 g/ha, 3 weeks, glass house 25° C.
Procedure, shortened: as §5

sugar beat [27] = test: Soil treatment test for upland field; format: in vivo; parameters: key: 0 = normal development, 5 = all killed; conditions: 500 g/ha, 3 weeks, glass house 25° C.
Procedure, shortened: as §5

velvetleaf [28] = test: Soil treatment test for upland field; format: in vivo, Abutilon theophrasti; parameters: key: 0 = normal development, 5 = all killed; conditions: 500 g/ha, 3 weeks, glass house 25° C.
Procedure, shortened: as §5

Row | SMILES | Effects Barnyardgrass (barnyard grass [1]) | Effects Bulrush (bulrush) | Effects Cyperus serotinus Rottb. (Cyperus serotinus Rottb.) | Effects Corn (corn [2]) | Effects Solgum (solgum [3]) | Effects Wheat (wheat [4]) | Effects Large crabgrass (Large crabgrass [5]) | Effects Barnyardgrass (barnyard grass [6]) | Effects Green foxtail (green foxtail [7]) | Effects Blackgrass (blackgrass [8]) | Effects Annual bluegrass (annual bluegrass [9]) | Effects Common lambsquarters (common lambsquarters [10]) | Effects Livid amaranth (livid amaranth [11]) | Effects Morning glory (morning glory [12]) | Effects Corn (corn [13]) | Effects Sotton (cotton) | Effects Solgum (solgum [14]) | Effects Soybean (soybean [15]) | Effects Sugar beat (sugar beat [16]) | Effects Wheat (wheat [17]) | also measured
1 | FC(F)(F)c1cccc(C=Cc2nc3ccccc3o2)c1 [I-c-1] | 3 | 3 | 3 | 1 | 1 | 0 | 5 | 5 | 5 | 5 | 5 | 5 | 5 | 1 | 2 | 2 | 1 | 5 | 3 | 1 | Effects Large crabgrass (Large crabgrass [18]): 3; Effects Barnyardgrass (barnyardgrjass): 1; Effects Green foxtail (green foxtail [19]): 3; Effects Blackgrass (blackgrass [20]): 1; Effects Annual bluegrass (annual bluegrass [21]): 1; Effects Common lambsquarters (common lambsquarters [22]): 3; Effects Livid amaranth (livid amaranth [23]): 4; Effects Velvetleaf (velvetleaf [24]): 2; Effects Morning glory (morning glory [25]): 5
2 | CCC(=Cc1cccc(C(F)(F)F)c1)c1nc2cc(C#N)ccc2o1 [I-c-81] | 5 | 5 | 4 | 2 | 2 | 3 | 5 | 5 | 5 | 5 | 5 | 5 | 5 | 5 | 3 | 4 | 3 | 5 | 4 | 2 | Effects Soybean (soybean [26]): 3; Effects Sugar beat (sugar beat [27]): 5; Effects Velvetleaf (velvetleaf [28]): 5; Effects Large crabgrass (Large crabgrass [18]): 4; Effects Barnyardgrass (barnyardgrjass): 3; Effects Green foxtail (green foxtail [19]): 4; Effects Blackgrass (blackgrass [20]): 3; Effects Annual bluegrass (annual bluegrass [21]): 4; Effects Common lambsquarters (common lambsquarters [22]): 5; Effects Livid amaranth (livid amaranth [23]): 5; Effects Velvetleaf (velvetleaf [24]): 3; Effects Morning glory (morning glory [25]): 5
